Data reported in patent US12281122B1, “PI3K inhibitors” (Cogent Biosciences, Inc., priority 2023, dated 2025).

What was measured:
[1] = tested on: T47D (PI3Kα-H1047R) cell line; assay: HTRF phospho-AKT(S473) cell assay in T47D cells; format: cell-based, human
Outline: (§1)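 T47D: RPMI + 10% FBS + 0.2 units/mL insulin, top 5 μM. SKBR3: McCoy's 5A + 10% FBS, top 10 μM, 70 ng/ml PDGF-BB last 15 min. Both: 12-pt 1:3, 2 h, 37° C, max 0.5% DMSO; HTRF pAKT(S473); IC50.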

[2] = tested on: SKBR3 (PI3Kα-Wild Type) cell line; assay: HTRF phospho-AKT(S473) cell assay in SKBR3 cells; format: cell-based, human
Outline: as §1

[3] = Homo sapiens; T47D (PI3Kα-H1047R) cells, HTRF phospho-AKT(S473), 2 hours compound incubation
[4] = Homo sapiens, SK-BR-3; SKBR3 (PI3Kα-Wild Type) cells, HTRF phospho-AKT(S473), 2 hours compound incubation, PDGF-BB stimulated
[5] = Homo sapiens; HTRF phospho-AKT(S473), T47D (PI3Kα-H1047R) cells, 2 hours compound incubation
[6] = Homo sapiens, SK-BR-3; HTRF phospho-AKT(S473), SKBR3 (PI3Kα-Wild Type) cells, 2 hours compound incubation, PDGF-BB stimulated

SMILES	IC50 [1, 3] [µM]	IC50 [2, 4] [µM]	IC50 [1, 5] [µM]	IC50 [2, 6] [µM]
Cc1cc([C@@H](C)Nc2ccc(Cl)nc2C(=O)NS(C)(=O)=O)c2nc(N3CCN(c4ncc(C#N)cc4C)CC3)n(C)c(=O)c2c1 [Compound 184, (R)-6-chloro-3-((1-(2-(4-(5-cyano-3-methylpyridin-2-yl)piperazin-1-yl)-3,6-dimethyl-4-oxo-3,4-dihydroquinazolin-8-yl)ethyl)amino)-N-(methylsulfonyl) picolinamide]	< 0.25	1 to 5	–	–
Cc1cc([C@@H](C)Nc2ccc(Cl)nc2C(=O)NS(C)(=O)=O)c2nc([C@H]3[C@@H]4CN(c5cnc(C)c(F)c5)C[C@@H]43)n(C)c(=O)c2c1 [Compound 828, 6-chloro-3-(((R)-1-(2-((1R,5S,6r)-3-(5-fluoro-6-methylpyridin-3-yl)-3-azabicyclo[3.1.0]hexan-6-yl)-3,6-dimethyl-4-oxo-3,4-dihydroquinazolin-8-yl)ethyl)amino)-N-(methylsulfonyl) picolinamide]	–	–	0.5 to 1	≥ 5
Cc1cc([C@@H](C)Nc2ccc(Cl)nc2C(=O)NS(C)(=O)=O)c2nc(N3Cc4cn(C(F)(F)F)nc4C3)n(C)c(=O)c2c1 [Compound 210, (R)-6-chloro-3-((1-(3,6-dimethyl-4-oxo-2-(2-(trifluoromethyl)-2,6-dihydropyrrolo[3,4-c]pyrazol-5(4H)-yl)-3,4-dihydroquinazolin-8-yl)ethyl)amino)-N-(methylsulfonyl) picolinamide]	< 0.25	1 to 5	–	–
Cc1cc([C@@H](C)Nc2ccc(Cl)nc2C(=O)NS(C)(=O)=O)c2nc(N3C[C@H]4C[C@@H]3CN4c3ccc(C#N)cn3)n(C)c(=O)c2c1 [Compound 601, 6-chloro-3-(((R)-1-(2-((1R,4R)-5-(5-cyanopyridin-2-yl)-2,5-diazabicyclo [2.2.1]heptan-2-yl)-3,6-dimethyl-4-oxo-3,4-dihydroquinazolin-8-yl)ethyl)amino)-N-(methylsulfonyl) picolinamide]	–	–	0.25 to 0.5	1 to 5
Cc1cc([C@@H](C)Nc2ccc(Cl)nc2C(=O)NS(C)(=O)=O)c2nc(N3CCC(c4cnc(C)nc4)CC3)n(C)c(=O)c2c1 [Compound 261, (R)-6-chloro-3-((1-(3,6-dimethyl-2-(4-(2-methylpyrimidin-5-yl)piperidin-1-yl)-4-oxo-3,4-dihydroquinazolin-8-yl)ethyl)amino)-N-(methylsulfonyl) picolinamide]	< 0.25	1 to 5	–	–
Cc1cc([C@@H](C)Nc2ccc(Cl)nc2C(=O)NS(C)(=O)=O)c2nc(N3C[C@@H]4C(c5ccnc(C)c5F)[C@@H]4C3)n(C)c(=O)c2c1 (stereo partly drawn) [Compound 763, 6-chloro-3-(((1R)-1-(2-((1R,5S)-6-(3-fluoro-2-methylpyridin-4-yl)-3-azabicyclo[3.1.0]hexan-3-yl)-3,6-dimethyl-4-oxo-3,4-dihydroquinazolin-8-yl)ethyl)amino)-N-(methylsulfonyl) picolinamide]	–	–	0.25 to 0.5	1 to 5
Cc1cc([C@@H](C)Nc2ccc(Cl)nc2C(=O)NS(C)(=O)=O)c2nc(N3CCC(c4nc(C)n(C)n4)CC3)n(C)c(=O)c2c1 [Compound 459, (R)-6-chloro-3-((1-(2-(4-(1,5-dimethyl-1H-1,2,4-triazol-3-yl)piperidin-1-yl)-3,6-dimethyl-4-oxo-3,4-dihydroquinazolin-8-yl)ethyl)amino)-N-(methylsulfonyl) picolinamide]	–	–	< 0.25	≥ 5
Cc1cc([C@@H](C)Nc2ccc(Cl)nc2C(=O)NS(C)(=O)=O)c2nc(N3CCC[C@@H](Oc4cnc(C)cn4)C3)n(C)c(=O)c2c1 [Compound 376, 6-chloro-3-(((R)-1-(3,6-dimethyl-2-((R)-3-((5-methylpyrazin-2-yl)oxy)piperidin-1-yl)-4-oxo-3,4-dihydroquinazolin-8-yl)ethyl)amino)-N-(methylsulfonyl) picolinamide]	0.25 to 0.5	≥ 5	–	–
Cc1cc([C@@H](C)Nc2ccc(Cl)nc2C(=O)NS(C)(=O)=O)c2nc(N3C[C@@H]4[C@H](C3)[C@H]4c3nn(C)cc3F)n(C3CC3)c(=O)c2c1 [Compound 466, 6-chloro-3-(((R)-1-(3-cyclopropyl-2-((1R,5S,6R)-6-(4-fluoro-1-methyl-1H-pyrazol-3-yl)-3-azabicyclo[3.1.0]hexan-3-yl)-6-methyl-4-oxo-3,4-dihydroquinazolin-8-yl)ethyl)amino)-N-(methylsulfonyl) picolinamide]	–	–	0.25 to 0.5	≥ 5
Cc1cc([C@@H](C)Nc2ccc(Cl)nc2C(=O)NS(C)(=O)=O)c2nc(N3[C@@H]4CC[C@H]3C[C@@H](c3cnn(C)c3)C4)n(C)c(=O)c2c1 (racemic) [Compound 381, 6-chloro-3-(((R)-1-(3,6-dimethyl-2-((1RS,3RS,5SR)-3-(1-methyl-1H-pyrazol-4-yl)-8-azabicyclo[3.2.1]octan-8-yl)-4-oxo-3,4-dihydroquinazolin-8-yl)ethyl)amino)-N-(methylsulfonyl) picolinamide]	< 0.25	1 to 5	–	–
Cc1cc([C@@H](C)Nc2ccc(Cl)nc2C(=O)NS(C)(=O)=O)c2nc(N3CCC(c4nn(C5COC5)cc4F)CC3)n(C)c(=O)c2c1 [Compound 759, (R)-6-chloro-3-((1-(2-(4-(4-fluoro-1-(oxetan-3-yl)-1H-pyrazol-3-yl)piperidin-1-yl)-3,6-dimethyl-4-oxo-3,4-dihydroquinazolin-8-yl)ethyl)amino)-N-(methylsulfonyl) picolinamide]	–	–	0.25 to 0.5	1 to 5
Cc1cc([C@@H](C)Nc2ccc(Cl)nc2C(=O)NS(C)(=O)=O)c2nc(N3CCn4nccc4C3)n(C)c(=O)c2c1 [Compound 765, (R)-6-chloro-3-((1-(2-(6,7-dihydropyrazolo[1,5-a]pyrazin-5(4H)-yl)-3,6-dimethyl-4-oxo-3,4-dihydroquinazolin-8-yl)ethyl)amino)-N-(methylsulfonyl) picolinamide]	–	–	0.25 to 0.5	1 to 5
Cc1cc([C@@H](C)Nc2ccc(Cl)nc2C(=O)NS(C)(=O)=O)c2nc(-c3ccc4nn(CC5CC5)cc4c3)n(C)c(=O)c2c1 [Compound 795, (R)-6-chloro-3-((1-(2-(2-(cyclopropylmethyl)-2H-indazol-5-yl)-3,6-dimethyl-4-oxo-3,4-dihydroquinazolin-8-yl)ethyl)amino)-N-(methylsulfonyl) picolinamide]	–	–	< 0.25	1 to 5
Cc1cc([C@@H](C)Nc2ccc(Cl)nc2C(=O)NS(C)(=O)=O)c2nc(-c3ccc4nc(C)oc4c3)n(C)c(=O)c2c1 [Compound 789, (R)-6-chloro-3-((1-(3,6-dimethyl-2-(2-methylbenzo[d]oxazol-6-yl)-4-oxo-3,4-dihydroquinazolin-8-yl)ethyl)amino)-N-(methylsulfonyl) picolinamide]	–	–	< 0.25	1 to 5
Cc1cc([C@@H](C)Nc2ccc(Cl)nc2C(=O)NS(C)(=O)=O)c2nc(N3[C@@H]4CC[C@H]3C[C@@H](c3cnn(C)c3)C4)n(C)c(=O)c2c1 [Compound 297, 6-chloro-3-(((R)-1-(3,6-dimethyl-2-((1R,3R,5S)-3-(1-methyl-1H-pyrazol-4-yl)-8-azabicyclo[3.2.1]octan-8-yl)-4-oxo-3,4-dihydroquinazolin-8-yl)ethyl)amino)-N-(methylsulfonyl) picolinamide]	0.25 to 0.5	≥ 5	–	–
